Assay results: patent US7145015B2, “Benzocycloheptenes, process for their production, pharmaceutical preparations that contain that latter as well as their use for the production of pharmaceutical agents” (Schering AG, priority 1998, dated 2006)

| melting point | Structure (SMILES) |
| --- | --- |
| 162 °C | O=S(=O)(CCCCCOc1ccc(C2=C(c3ccccc3)CCCc3cc(O)ccc32)cc1)c1ccccc1 [Example 53, 6-phenyl-5-[4-(5-phenylsulfonyl-pentyloxy)-phenyl]-8,9-dihydro-7H-benzocyclohepten-2-ol] |
| 139 °C | CC(C)(C)c1ccc(SCCCCCOc2ccc(C3=C(c4ccccc4)CCCc4cc(O)ccc43)cc2)cc1 [Example 54, 5-{4-[5-(4-tert-Butyl-phenylthio)-pentyloxy]-phenyl}-6-phenyl-8,9-dihydro-7H-benzocyclohepten-2-ol] |
